# How the values were obtained:
# Test in all cases: relative viability (nuclei count vs DMSO), 5 days (fraction); higher = more cells survive
# [1] = compound: CC1=CN=C(N=C1C2=CNC(=C2)C(=O)N[C@H](CO)C3=CC(=CC=C3)Cl)NC4=C(C=C(C=C4)F)Cl [VX-11e] + CC(=O)c1c(C)c2cnc(Nc3ccc(N4CCNCC4)cn3)nc2n(C2CCCC2)c1=O [Palbociclib] (partner 0.5 µM)
# Outline: (§1)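 Relative viability was taken as the ratio of nuclei in treated wells to nuclei in vehicle wells. Lung cancer cell lines in 1536-well plates received compounds by pin tool one day after seeding, either one drug alone or a fixed anchor-drug dose plus five library-drug doses (not always all listed) in √10 steps. Nuclei were counted on 4× images after 5 days of treatment, and values are medians of duplicate plates.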
# [2] = compound: CC1=CN=C(N=C1C2=CNC(=C2)C(=O)N[C@H](CO)C3=CC(=CC=C3)Cl)NC4=C(C=C(C=C4)F)Cl [VX-11e] + CCNC(=O)c1noc(-c2cc(C(C)C)c(O)cc2O)c1-c1ccc(CN2CCOCC2)cc1 [Luminespib] (partner 0.01 µM)
# Outline: as §1
# [3] = compound: CC1=CN=C(N=C1C2=CNC(=C2)C(=O)N[C@H](CO)C3=CC(=CC=C3)Cl)NC4=C(C=C(C=C4)F)Cl [VX-11e] + COc1cccc2cc(-c3nc([C@H]4CC[C@H](C(=O)O)CC4)n4ncnc(N)c34)[nH]c12 [OSI-027] (partner 0.5 µM)
# Outline: as §1
# [4] = compound: CC1=CN=C(N=C1C2=CNC(=C2)C(=O)N[C@H](CO)C3=CC(=CC=C3)Cl)NC4=C(C=C(C=C4)F)Cl [VX-11e] + CS(=O)(=O)N1CCN(Cc2cc3nc(-c4cccc5[nH]ncc45)nc(N4CCOCC4)c3s2)CC1 [Pictilisib] (partner 1 µM)
# Outline: as §1
Cell Line,relative viability ([1]; first compound 0.04 µM),relative viability ([1]; first compound 0.1265 µM),relative viability ([1]; first compound 0.4 µM),relative viability ([1]; first compound 1.265 µM),relative viability ([1]; first compound 4 µM),relative viability ([2]; first compound 0.04 µM),relative viability ([2]; first compound 0.1265 µM),relative viability ([2]; first compound 0.4 µM),relative viability ([2]; first compound 1.265 µM),relative viability ([2]; first compound 4 µM),relative viability ([3]; first compound 0.04 µM),relative viability ([3]; first compound 0.1265 µM),relative viability ([3]; first compound 0.4 µM),relative viability ([3]; first compound 1.265 µM),relative viability ([3]; first compound 4 µM),relative viability ([4]; first compound 0.04 µM),relative viability ([4]; first compound 0.1265 µM),relative viability ([4]; first compound 0.4 µM),relative viability ([4]; first compound 1.265 µM),relative viability ([4]; first compound 4 µM)
NCI-H1355,0.432,0.382,0.382,0.319,0.216,0.681,0.683,0.552,0.638,0.47,0.302,0.311,0.197,0.256,0.224,0.263,0.194,0.166,0.3,0.232
HOP-62,0.505,0.451,0.464,0.434,0.348,1.01,0.843,0.946,0.687,0.406,0.633,0.715,0.569,0.464,0.372,0.42,0.51,0.152,0.125,0.116
NCI-H2405,0.579,0.506,0.385,0.513,0.328,0.798,0.719,0.395,0.717,0.296,0.587,0.599,0.375,0.768,0.37,0.3,0.388,,0.412,0.125
SK-MES-1,0.326,0.329,0.355,0.327,0.244,0.838,0.634,0.766,0.406,0.262,0.585,0.436,0.632,0.552,0.185,0.337,0.31,0.316,0.249,0.168
EPLC-272H,0.339,0.293,,0.295,0.235,0.173,0.302,,0.293,0.148,0.257,0.219,,0.199,0.165,0.301,0.299,0.266,0.213,0.233
NCI-H3122,0.211,0.164,0.168,0.166,0.135,0.0662,0.0869,,0.0911,0.0987,0.892,0.898,,0.513,0.147,0.633,0.57,0.255,0.406,0.212
NCI-H1993,,0.708,0.607,0.559,0.503,1.12,0.918,0.484,1.02,0.663,0.556,0.538,0.557,0.605,0.677,,0.805,,0.814,0.865
LK-2,0.557,0.594,0.566,0.399,0.45,0.197,0.198,0.193,0.182,0.183,0.163,0.187,0.146,0.153,0.17,,0.45,0.562,,0.337
LCLC-103H,0.469,0.435,0.502,0.456,0.448,0.98,0.698,1.03,0.83,0.785,0.461,0.458,0.43,0.402,0.344,0.516,0.509,0.582,0.442,0.439
NCI-H441,0.175,0.232,,0.157,0.165,0.345,0.31,,0.459,0.323,0.519,0.502,,0.518,0.417,0.349,0.518,,0.371,0.24
COR-L 105,0.425,0.414,0.396,0.386,0.363,0.978,0.391,0.825,0.592,0.375,0.541,0.802,0.552,0.326,0.254,0.341,0.41,0.362,0.29,0.322
NCI-H1792,0.684,0.586,0.645,0.541,0.319,0.419,0.351,0.216,0.417,0.225,0.733,0.581,0.524,0.634,0.208,0.299,0.2,0.319,0.27,0.0521
NCI-H2228,0.832,0.731,0.165,0.528,0.199,0.145,0.138,,0.148,0.12,0.617,0.54,,0.216,0.123,0.355,0.464,0.0994,0.854,0.188
LC-2-ad,0.48,0.42,0.54,0.46,0.409,1.18,0.947,0.633,0.883,0.815,0.73,0.534,0.363,0.584,0.466,0.398,0.432,0.349,0.247,0.163
HARA,0.337,0.237,0.196,0.158,0.178,0.677,0.609,0.637,0.695,0.297,0.269,0.372,0.279,0.186,0.0641,0.0961,0.425,0.322,0.341,0.188
PC-14,0.551,0.497,0.374,0.252,0.19,0.199,0.173,,0.112,0.172,0.739,0.723,0.4,0.635,0.166,0.661,0.619,0.583,0.494,0.207
LCLC-97TM1,0.202,0.176,0.194,,0.114,0.781,0.693,0.615,0.393,0.263,0.494,0.274,0.287,0.418,0.175,0.137,0.138,,0.143,0.0889

# From the supplement of paper PMC10307832
